The values that follow come from ChEMBL document CHEMBL3751819, “Navigating into the chemical space between MGCD0103 and SAHA: novel histone deacetylase inhibitors as a promising lead” (Medchemcomm, 2015).

The structures appear in SMILES notation.

A short description of data set [1]: Half life in mouse microsomes. In kind it is ADME, Microsome.
Data set [2] has as its system HepG2. Briefly: Antiproliferative activity against human HepG2 cells assessed as reduction in cell viability after 24 hrs by MTT assay. It counts as functional, cell-based. Conditions: HepG2, 24 h.
Data set [3] concerns MCF7. As to the kind of experiment: Antiproliferative activity against human MCF7 cells assessed as reduction in cell viability after 72 hrs by MTT assay. It counts as functional, cell-based. As to conditions: MCF7, 72 h.
For the next data set, the target named is Histone deacetylase 2 (Homo sapiens, UniProt Q92769). As to the kind of experiment: Inhibition of HDAC2 (unknown origin) using Boc-Lys(acetyl)-AMC as substrate preincubated for 5 mins followed by substrate addition by fluorescence assay.
Data set [4] concerns HeLa. As to the kind of experiment: Induction of apoptosis in human HeLa cells assessed as viable cells at 2.5 uM after 48 hrs by annexin-V-FITC/propidium iodide staining based flow cytometry (reference value: 88.6%). Conditions: Homo sapiens, HeLa, 48 h; read-out: Activity. It counts as functional.
Data set [5] deals with T1, Protein deacetylase HDAC6 (Homo sapiens, UniProt Q9UBN7).
T1 sequence (Q9UBN7 whole entry): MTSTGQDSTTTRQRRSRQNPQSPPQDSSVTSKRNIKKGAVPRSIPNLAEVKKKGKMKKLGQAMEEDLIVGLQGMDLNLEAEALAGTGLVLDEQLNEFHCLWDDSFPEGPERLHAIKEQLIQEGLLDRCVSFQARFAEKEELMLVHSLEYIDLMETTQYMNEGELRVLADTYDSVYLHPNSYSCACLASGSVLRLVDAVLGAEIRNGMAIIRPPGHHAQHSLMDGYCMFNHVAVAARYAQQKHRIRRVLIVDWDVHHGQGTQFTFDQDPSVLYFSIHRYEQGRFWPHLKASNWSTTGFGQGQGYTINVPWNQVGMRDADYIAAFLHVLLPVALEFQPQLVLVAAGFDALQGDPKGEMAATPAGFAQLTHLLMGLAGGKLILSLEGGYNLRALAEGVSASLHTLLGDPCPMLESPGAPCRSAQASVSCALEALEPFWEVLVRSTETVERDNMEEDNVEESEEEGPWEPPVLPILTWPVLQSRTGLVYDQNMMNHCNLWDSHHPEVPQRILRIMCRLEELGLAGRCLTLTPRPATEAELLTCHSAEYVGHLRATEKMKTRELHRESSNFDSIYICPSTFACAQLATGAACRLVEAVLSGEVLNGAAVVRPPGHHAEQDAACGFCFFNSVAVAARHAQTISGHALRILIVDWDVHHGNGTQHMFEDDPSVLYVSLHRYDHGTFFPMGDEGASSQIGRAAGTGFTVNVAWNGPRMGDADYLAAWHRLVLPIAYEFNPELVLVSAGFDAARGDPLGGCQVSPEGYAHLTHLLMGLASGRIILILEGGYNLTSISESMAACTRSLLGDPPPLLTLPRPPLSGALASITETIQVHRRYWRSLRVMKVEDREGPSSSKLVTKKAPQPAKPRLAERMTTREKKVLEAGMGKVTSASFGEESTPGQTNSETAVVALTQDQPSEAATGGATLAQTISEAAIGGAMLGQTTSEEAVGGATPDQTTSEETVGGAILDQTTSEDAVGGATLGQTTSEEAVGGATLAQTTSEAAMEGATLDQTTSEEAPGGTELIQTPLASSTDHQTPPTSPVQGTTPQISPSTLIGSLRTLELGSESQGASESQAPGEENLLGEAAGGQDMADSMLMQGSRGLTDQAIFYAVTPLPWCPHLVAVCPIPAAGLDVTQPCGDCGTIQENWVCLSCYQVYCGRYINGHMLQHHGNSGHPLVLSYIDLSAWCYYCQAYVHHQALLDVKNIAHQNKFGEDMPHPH
Briefly: Inhibition of HDAC6 (unknown origin) using Boc-Lys(acetyl)-AMC as substrate preincubated for 5 mins followed by substrate addition by fluorescence assay.

In data set [6] the test system is HeLa. Briefly: Induction of cell cycle arrest in human HeLa cells assessed as accumulation at S phase at 1 uM after 24 hrs by propidium iodide staining based flow cytometry (reference value: 0.12 to 0.13%). In kind it is functional.
The subject of data set [7] is HepG2. As to the kind of experiment: Antiproliferative activity against human HepG2 cells assessed as reduction in cell viability after 72 hrs by MTT assay. It counts as functional, cell-based. Conditions: HepG2, 72 h.
Data set [8] deals with HeLa. As to the kind of experiment: Induction of apoptosis in human HeLa cells assessed as necrotic cells at 1.25 uM after 48 hrs by annexin-V-FITC/propidium iodide staining based flow cytometry (reference value: 0.693%). In kind it is functional.
The subject of data set [9] is HeLa. As to the kind of experiment: Induction of cell cycle arrest in human HeLa cells assessed as accumulation at S phase at 0.5 uM after 24 hrs by propidium iodide staining based flow cytometry (reference value: 0.12 to 0.13%). It counts as functional.
For data set [10], the system named is HeLa. As to the kind of experiment: Induction of apoptosis in human HeLa cells assessed as late apoptotic cells at 1.25 uM after 48 hrs by annexin-V-FITC/propidium iodide staining based flow cytometry (reference value: 9.3%). It counts as functional.
Data set [11] relates to MCF7. As to the kind of experiment: Antiproliferative activity against human MCF7 cells assessed as reduction in cell viability after 48 hrs by MTT assay. It counts as functional, cell-based. As to conditions: MCF7, 48 h.
Data set [12] relates to HeLa. As to the kind of experiment: Induction of apoptosis in human HeLa cells assessed as late apoptotic cells at 2.5 uM after 48 hrs by annexin-V-FITC/propidium iodide staining based flow cytometry (reference value: 9.3%). In kind it is functional.
Data set [13] has as its system HeLa. Briefly: Induction of cell cycle arrest in human HeLa cells assessed as accumulation at G0/G1 phase at 1 uM after 24 hrs by propidium iodide staining based flow cytometry (reference value: 0.5 to 0.52%). In kind it is functional.
Data set [14] can be described thus: Antiproliferative activity against human HCT116 cells assessed as reduction in cell viability after 48 hrs by MTT assay. In kind it is functional, cell-based. Conditions: HCT-116, 48 h.
In data set [15] the test system is A549. Briefly: Antiproliferative activity against human A549 cells assessed as reduction in cell viability after 72 hrs by MTT assay. It counts as functional, cell-based. As to conditions: for IC50: A549, 72 h.
The subject of data set [16] is HeLa. Briefly: Induction of apoptosis in human HeLa cells assessed as late apoptotic cells at 5 uM after 48 hrs by annexin-V-FITC/propidium iodide staining based flow cytometry (reference value: 9.3%). In kind it is functional.
For data set [17], the system named is HeLa. Briefly: Induction of apoptosis in human HeLa cells assessed as necrotic cells at 2.5 uM after 48 hrs by annexin-V-FITC/propidium iodide staining based flow cytometry (reference value: 0.693%). In kind it is functional.
In data set [18] the test system is HeLa. As to the kind of experiment: Induction of cell cycle arrest in human HeLa cells assessed as accumulation at G2/M phase at 2 uM after 24 hrs by propidium iodide staining based flow cytometry (reference value: 0.35 to 0.37%). In kind it is functional.
Data set [19] in a line: Half life in artificial gastric fluid. In kind it is ADME.
Data set [20] has as its system A549. As to the kind of experiment: Antiproliferative activity against human A549 cells assessed as reduction in cell viability after 24 hrs by MTT assay. It counts as functional, cell-based. Conditions: A549, 24 h.

Histone deacetylase 2, sequence (Q92769 whole entry): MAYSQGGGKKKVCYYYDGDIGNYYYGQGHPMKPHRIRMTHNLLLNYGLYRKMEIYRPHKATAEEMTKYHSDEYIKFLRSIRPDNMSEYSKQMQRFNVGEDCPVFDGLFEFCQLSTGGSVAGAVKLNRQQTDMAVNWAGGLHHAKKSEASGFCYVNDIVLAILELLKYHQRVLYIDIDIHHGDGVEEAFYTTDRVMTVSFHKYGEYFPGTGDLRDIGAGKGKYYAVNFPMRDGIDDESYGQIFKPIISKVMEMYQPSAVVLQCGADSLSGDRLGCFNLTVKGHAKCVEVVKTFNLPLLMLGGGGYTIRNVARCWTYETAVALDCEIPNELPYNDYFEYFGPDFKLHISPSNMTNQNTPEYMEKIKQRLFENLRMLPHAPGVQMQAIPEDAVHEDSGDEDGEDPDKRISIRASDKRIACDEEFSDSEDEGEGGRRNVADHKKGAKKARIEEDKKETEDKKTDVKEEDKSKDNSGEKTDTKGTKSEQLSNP

For the molecule `O=C(NO)c1ccc(CNc2nccc(-c3cccnc3)n2)cc1`, the results for the half-life in data set [1] and in data set [19] were 2.87 h and > 24 h, respectively. Besides, the IC50 with HepG2 [2] is 22.9 µM; with MCF7 [3], 2.41 µM; at Histone deacetylase 2, 0.134 µM; in data set [5], 0.078 µM; in the data set with HepG2 [7], 2.96 µM; in the data set on MCF7 [11], 16 µM. In addition, the 50% inhibitory concentration (IC50) in [14] is < 0.88 µM; in the data set on A549 [15], 4.64 µM. Moreover, the viability at 2.5 µM with HeLa [4] was determined as 81.1%. The Activity in the data set with HeLa [6] worked out at 0.03%; with HeLa [8], 0.94%; with HeLa [9] it was 0.13%; with HeLa [10] it was 14.9%; with HeLa [12], 11.9%; with HeLa [13] it was 0.66%. The Activity result in the data set with A549 [15] is “Dose-dependent effect”; with HeLa [16], 11.7%; in the data set with HeLa [17], 0.72%; in the data set on HeLa [18] it was 0.04%.
Consider `O=C(/C=C/c1ccc(CNc2nccc(-c3cccnc3)n2)cc1)NO`, for which the half-life was 2.5 h in data set [1] and > 24 h in data set [19]. Moreover, the IC50 with HepG2 [2] is 20.5 µM; with MCF7 [3], 2.66 µM; on Histone deacetylase 2, 0.187 µM; in [5], 0.069 µM; with HepG2 [7], 6.52 µM; with MCF7 [11], 23 µM. Moreover, the IC50 is < 0.81 µM in data set [14], 7.99 µM in the data set on A549 [15] and 98 µM with A549 [20]. For the same molecule, the viability at 2.5 µM in the data set with HeLa [4] turned out to be 79.6%. Moreover, the Activity is listed as 0.05% in the data set with HeLa [6]; 0.924% in the data set on HeLa [8]; 0.13% in the data set on HeLa [9]; 12.2% in the data set on HeLa [10]; 13.2% with HeLa [12]; 0.64% in the data set with HeLa [13]. Also, the Activity result in the data set on A549 [15] was “Dose-dependent effect”; in the data set on HeLa [16] it was 12.4%; with HeLa [17], 0.603%; with HeLa [18], 0.09%.
